US11040981B2, “Pyrrolotriazine compounds and methods of inhibiting TAM kinases” (Syros Pharmaceuticals, Inc., priority 2017, dated 2021)

Key:
AXL = target: T1, AXL (Homo sapiens, UniProt P30530); assay: TR-FRET kinase activity assay, AXL; format: biochemical; conditions: ATP at Km, 60 minutes
T1 sequence (P30530 26-894): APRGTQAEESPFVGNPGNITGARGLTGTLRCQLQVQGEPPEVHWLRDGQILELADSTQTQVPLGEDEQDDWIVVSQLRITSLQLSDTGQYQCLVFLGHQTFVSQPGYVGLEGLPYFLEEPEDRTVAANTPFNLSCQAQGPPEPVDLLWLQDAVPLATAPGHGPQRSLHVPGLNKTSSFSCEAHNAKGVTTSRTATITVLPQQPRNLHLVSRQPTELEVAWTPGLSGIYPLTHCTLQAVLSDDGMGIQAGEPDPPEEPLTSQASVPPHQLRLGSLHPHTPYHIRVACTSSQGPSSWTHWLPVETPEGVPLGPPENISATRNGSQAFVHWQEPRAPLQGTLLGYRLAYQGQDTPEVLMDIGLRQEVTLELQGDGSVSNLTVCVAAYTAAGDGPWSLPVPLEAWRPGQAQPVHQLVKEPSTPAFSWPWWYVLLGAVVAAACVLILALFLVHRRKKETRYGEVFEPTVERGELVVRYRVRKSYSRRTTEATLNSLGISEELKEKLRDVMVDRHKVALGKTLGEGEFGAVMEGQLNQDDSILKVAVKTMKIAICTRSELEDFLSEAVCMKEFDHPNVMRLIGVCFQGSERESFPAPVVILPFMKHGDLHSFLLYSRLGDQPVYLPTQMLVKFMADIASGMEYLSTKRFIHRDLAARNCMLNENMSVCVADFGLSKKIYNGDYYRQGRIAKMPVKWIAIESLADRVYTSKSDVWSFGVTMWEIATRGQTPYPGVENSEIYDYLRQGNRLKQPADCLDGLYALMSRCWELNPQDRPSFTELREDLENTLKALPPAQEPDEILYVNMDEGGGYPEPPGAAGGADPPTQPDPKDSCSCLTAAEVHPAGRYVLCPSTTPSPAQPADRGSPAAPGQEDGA
Summary of the method: (§1)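 Enzyme + labelled peptide + cpd premixed; ATP at per-enzyme Km starts rxn. 60 min RT, HEPES pH 7.5/MgCl2/EGTA/Brij 35/DTT buffer. Stop 12.5 mM EDTA, Eu phospho-Ab 30 min dark, TR-FRET read → IC50.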

FLT3 = target: T2, FLT3 (Homo sapiens, UniProt P36888); assay: TR-FRET kinase activity assay, FLT3; format: biochemical; conditions: ATP at Km, 60 minutes
T2 sequence (P36888 27-993): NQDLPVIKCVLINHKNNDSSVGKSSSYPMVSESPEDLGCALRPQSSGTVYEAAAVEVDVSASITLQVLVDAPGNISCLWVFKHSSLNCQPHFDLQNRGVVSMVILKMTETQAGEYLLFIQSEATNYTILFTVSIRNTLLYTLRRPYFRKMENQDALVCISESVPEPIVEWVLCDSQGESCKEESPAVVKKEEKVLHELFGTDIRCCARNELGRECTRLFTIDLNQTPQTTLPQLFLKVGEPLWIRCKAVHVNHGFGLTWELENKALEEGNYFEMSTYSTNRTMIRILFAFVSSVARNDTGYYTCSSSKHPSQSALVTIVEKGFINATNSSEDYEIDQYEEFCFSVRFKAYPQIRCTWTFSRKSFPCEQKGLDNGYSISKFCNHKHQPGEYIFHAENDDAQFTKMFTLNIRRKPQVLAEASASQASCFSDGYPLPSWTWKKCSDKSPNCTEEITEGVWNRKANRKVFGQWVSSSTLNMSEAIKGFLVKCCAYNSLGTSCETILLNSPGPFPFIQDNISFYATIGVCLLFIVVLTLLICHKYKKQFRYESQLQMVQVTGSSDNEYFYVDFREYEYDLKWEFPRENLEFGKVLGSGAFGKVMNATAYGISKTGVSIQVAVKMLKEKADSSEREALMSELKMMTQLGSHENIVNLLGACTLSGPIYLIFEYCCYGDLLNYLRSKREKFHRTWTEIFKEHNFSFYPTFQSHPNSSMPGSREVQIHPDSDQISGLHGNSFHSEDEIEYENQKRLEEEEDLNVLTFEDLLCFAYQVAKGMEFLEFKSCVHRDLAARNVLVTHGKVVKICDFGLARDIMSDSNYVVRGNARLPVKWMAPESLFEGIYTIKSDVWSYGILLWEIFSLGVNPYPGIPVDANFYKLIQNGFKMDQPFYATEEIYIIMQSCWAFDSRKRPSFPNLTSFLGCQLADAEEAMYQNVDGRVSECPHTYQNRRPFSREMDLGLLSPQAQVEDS
Summary of the method: as §1

Compound | IC50 (AXL) [nM] | IC50 (FLT3) [nM]
COC[C@H](C)Nc1ncc2c(C3=C[C@@H]4CC[C@H](C3)N4C(=O)N3CCOCC3)cc([C@H]3CC[C@H](O)CC3)n2n1 [Compound 463] | ≤ 100 | 100 to 1000
CCC(=O)N1CCN(c2cc(-c3cc([C@H]4CC[C@H](O)CC4)n4nc(N[C@@H](C)COC)ncc34)ccn2)CC1 [Compound 432] | ≤ 100 | 100 to 1000
COC[C@H](C)Nc1ncc2c(-c3cccc(C4CCc5nc(C)[nH]c5C4)c3)cc([C@H]3CC[C@H](O)CC3)n2n1 (stereo partly shown) [Compound 498] | ≤ 100 | 100 to 1000
COC[C@H](C)Nc1ncc2c(-c3ccnc(N4CCN(C5COC5)CC4)c3)cc([C@H]3CC[C@H](O)CC3)n2n1 [Compound 486] | ≤ 100 | 1000 to 10000
COC[C@H](C)Nc1ncc2c(C#CC(C)(C)C(=O)N3CCOCC3)cc([C@H]3CC[C@H](O)CC3)n2n1 [Compound 449] | 100 to 1000 | 1000 to 10000
COC[C@H](C)Nc1ncc2c(-c3cnn(C[C@@H]4CCO4)c3)cc([C@H]3CC[C@H](O)CC3)n2n1 [Compound 474] | ≤ 100 | 100 to 1000
C[C@@H](CC(F)F)Nc1ncc2c(-c3ccc(S(C)(=O)=O)nc3)cc([C@H]3CC[C@H](O)CC3)n2n1 [Compound 489] | ≤ 100 | ≤ 100
COC[C@H](C)Nc1ncc2c(-c3ccnc(N4CCNCC4)c3)cc([C@H]3CC[C@H](O)CC3)n2n1 [Compound 434] | ≤ 100 | 100 to 1000
COC[C@H](C)Nc1ncc2c(-c3ccnc(N4CCC5(CCO5)CC4)c3)cc([C@H]3CC[C@H](O)CC3)n2n1 [Compound 430] | ≤ 100 | 100 to 1000
COC[C@H](C)Nc1ncc2c(-c3cnn(C[C@@H]4CCO4)c3)cc([C@H]3CC[C@H](O)CC3)n2n1 [Compound 478] | ≤ 100 | 1000 to 10000
COC[C@H](C)Nc1ncc2c(C3=C[C@H]4CC[C@@H](C3)N4C(=O)N3CCOCC3)cc([C@H]3CC[C@H](O)CC3)n2n1 [Compound 469] | ≤ 100 | 100 to 1000
C[C@@H](CC(F)(F)F)Nc1ncc2c(C3=CCNCC3)cc([C@H]3CC[C@H](O)CC3)n2n1 [Compound 442] | ≤ 100 | ≤ 100
COC[C@H](C)Nc1ncc2c(-c3cnn(C(C)(C)C(=O)N4CCOCC4)c3)cc(C3CCc4[nH]ncc4C3)n2n1 (stereo partly shown) [Compound 488] | ≤ 100 | 100 to 1000
COC[C@H](C)Nc1ncc2c(-c3ccnc(NC4CCOCC4)c3)cc([C@H]3CC[C@H](O)CC3)n2n1 [Compound 431] | ≤ 100 | 100 to 1000
COC[C@H](C)Nc1ncc2c(C#N)cc([C@H]3CC[C@H](O)CC3)n2n1 [Compound 481] | 1000 to 10000 | 1000 to 10000
COC[C@H](C)Nc1ncc2c(C3=C[C@H]4CC[C@@H](C3)N4CC(F)(F)F)cc([C@H]3CC[C@H](O)CC3)n2n1 [Compound 492] | ≤ 100 | 1000 to 10000
COC[C@H](C)Nc1ncc2c(-c3ccnc(N4CCOCC4=O)c3)cc([C@H]3CC[C@H](O)CC3)n2n1 [Compound 423] | ≤ 100 | 100 to 1000
COC[C@H](C)Nc1ncc2c(-c3conc3C)cc([C@H]3CC[C@H](O)CC3)n2n1 [Compound 508] | ≤ 100 | 1000 to 10000
C[C@@H](CC(F)(F)F)Nc1ncc2c(C3=C[C@@H]4CC[C@H](C3)N4)cc([C@H]3CC[C@H](O)CC3)n2n1 [Compound 499] | ≤ 100 | 100 to 1000

Compound | IC50 (AXL) [nM] | IC50 (FLT3) [nM]
CC[C@H](C)Nc1ncc2c(C3CCOCC3)cc([C@H]3CC[C@H](O)CC3)n2n1 [Compound 129, (trans)-4-(2-((S)-sec-butylamino)-5-(tetrahydro-2H-pyran-4-yl)pyrrolo[2,1-f][1,2,4]triazin-7-yl)cyclohexanol] | 100 to 1000 | 1000 to 10000
COC[C@H](C)Nc1ncc2c(-c3cnn(C4COC4)c3)cc(-c3ccc(OC)cc3)n2n1 [Compound 502] | 100 to 1000 | 1000 to 10000
COC[C@H](C)Nc1ncc2c(C3=C[C@H]4CC[C@@H](C3)N4)cc([C@H]3CC[C@H](O)CC3)n2n1 [Compound 467] | ≤ 100 | 1000 to 10000
COC[C@H](C)Nc1ncc2c(C3=C[C@@H]4CC[C@H](C3)N4C(C)=O)cc([C@H]3CC[C@H](O)CC3)n2n1 [Compound 462] | ≤ 100 | 100 to 1000
C[C@H](CC(F)(F)F)Nc1ncc2c(C3=C[C@H]4CC[C@@H](C3)N4C(=O)OC(C)(C)C)cc([C@H]3CC[C@H](O)CC3)n2n1 [Compound 456] | ≤ 100 | ≤ 100
CC[C@H](C)Nc1ncc2c(C3=CCOCC3)cc([C@H]3CC[C@H](O)CC3)n2n1 [Compound 128] | ≤ 100 | ≤ 100
C[C@@H](CC(F)(F)F)Nc1ncc2c([C@H]3CC[C@@H](C(=O)N4CCOCC4)CC3)cc([C@H]3CC[C@H](O)CC3)n2n1 [Compound 446] | ≤ 100 | ≤ 100
CC(CC1COC1)Nc1ncc2c(-c3cnn(C4COC4)c3)cc([C@H]3CC[C@H](O)CC3)n2n1 (mixture of isomers) [Compound 447] | 1000 to 10000 | 1000 to 10000
CNS(=O)(=O)c1ccc(-c2cc([C@H]3CC[C@H](O)CC3)n3nc(N[C@@H](C)COC(F)F)ncc23)cn1 [Compound 424] | ≤ 100 | 100 to 1000
COC[C@H](C)Nc1ncc2c(CC#N)cc([C@H]3CC[C@H](O)CC3)n2n1 [Compound 497] | 100 to 1000 | 1000 to 10000
COC[C@H](C)Nc1ncc2c(C3=C[C@@H]4CC[C@H](C3)N4CC(F)(F)F)cc([C@H]3CC[C@H](O)CC3)n2n1 [Compound 485] | ≤ 100 | 100 to 1000
C[C@@H](COC(F)F)Nc1ncc2c(-c3cnn(CCC#N)c3)cc([C@H]3CC[C@H](O)CC3)n2n1 [Compound 437] | ≤ 100 | ≤ 100
COC[C@H](C)Nc1ncc2c(-c3cnn(C4COC4)c3)cc([C@H]3CC[C@@](C)(O)CC3)n2n1 (single isomer, unassigned) [Compound 453] | ≤ 100 | 100 to 1000
COC[C@H](C)Nc1ncc2c(-c3ccnc(F)c3)cc([C@H]3CC[C@H](O)CC3)n2n1 [Compound 505] | ≤ 100 | 1000 to 10000
COC[C@H](C)Nc1ncc2c(-c3cnn(C[C@@H]4CC(=O)N(C)C4)c3)cc([C@H]3CC[C@H](O)CC3)n2n1 [Compound 473] | ≤ 100 | 100 to 1000
CCCCC[C@H](C)Nc1ncc2c([C@H]3CC[C@@H](C(=O)N4CCN(C)CC4)CC3)cc([C@H]3CC[C@H](O)CC3)n2n1 [Compound 127] | ≤ 100 | 100 to 1000
COC[C@H](C)Nc1ncc2c(-c3ccnc(Oc4cccnc4)c3)cc([C@H]3CC[C@H](O)CC3)n2n1 [Compound 490] | ≤ 100 | 100 to 1000
COC[C@H](C)Nc1ncc2c([C@H]3CC[C@@H](C(=O)N4CCOCC4)CC3)cc([C@H]3CC[C@H](O)CC3)n2n1 [Compound 484] | 100 to 1000 | 1000 to 10000
COC[C@H](C)Nc1ncc2c(-c3ccnc(N4CCOC5(COC5)C4)c3)cc([C@H]3CC[C@H](O)CC3)n2n1 [Compound 480] | ≤ 100 | 100 to 1000
